Structures can show the parent of a compound that is named as a salt. Where two headings read alike, the source gives them in different places.
Columns and labels:
Assay type in all cases: biochemical
recombinant PRL-2 = target: T1, recombinant PRL-2 (Homo sapiens, UniProt Q12974); assay: In vitro phosphatase assay (DiFMUP hydrolysis), PRL-2;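 further: PRL-2 activity read as DiFMUP hydrolysis after 20 min at room temperature with drug, enzyme first pre-reduced at 4 °C for 20 min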
T1 construct: 6xHis (N, cleaved yes); made in house; host or cells: E. coli One Shot BL21 Star
T1 sequence (Q12974 1-167): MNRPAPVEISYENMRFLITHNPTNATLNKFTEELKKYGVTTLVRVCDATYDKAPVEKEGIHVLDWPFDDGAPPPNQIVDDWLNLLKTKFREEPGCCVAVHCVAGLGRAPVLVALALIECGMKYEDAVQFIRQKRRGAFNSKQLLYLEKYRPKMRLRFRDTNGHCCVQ

recombinant PRL-1 = target: T2, recombinant PRL-1 (Homo sapiens, UniProt Q93096); assay: In vitro phosphatase assay (DiFMUP hydrolysis), PRL-1; further: test concentration or dose not given here
T2 construct: 6xHis (N, cleaved yes); made in house; host or cells: E. coli One Shot BL21 Star
T2 sequence (Q93096 1-173): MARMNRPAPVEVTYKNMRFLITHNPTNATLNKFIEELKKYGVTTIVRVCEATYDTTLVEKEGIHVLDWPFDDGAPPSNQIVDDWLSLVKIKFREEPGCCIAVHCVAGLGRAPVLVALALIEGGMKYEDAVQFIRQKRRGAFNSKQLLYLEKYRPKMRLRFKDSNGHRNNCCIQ

recombinant PRL-3 = target: T3, recombinant PRL-3 (Homo sapiens, UniProt O75365); assay: In vitro phosphatase assay (DiFMUP hydrolysis), PRL-3; further: test concentration or dose not given here
T3 construct: 6xHis (N, cleaved yes); made in house; host or cells: E. coli One Shot BL21 Star
T3 sequence (O75365 whole entry): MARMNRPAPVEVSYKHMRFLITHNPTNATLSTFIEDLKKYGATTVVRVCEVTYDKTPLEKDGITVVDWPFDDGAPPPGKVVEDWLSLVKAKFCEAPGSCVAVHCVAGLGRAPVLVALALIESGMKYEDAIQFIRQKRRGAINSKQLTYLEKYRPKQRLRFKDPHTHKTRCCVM

[1] = FDA-approved drug screen, compared to DMSO

Structure (SMILES)	% Phosphatase Activity (compared to DMSO) PRL-2 (recombinant PRL-2; [1])	% Phosphatase Activity (compared to DMSO) PRL-1 (recombinant PRL-1; [1])	% Phosphatase Activity (compared to DMSO) PRL-3 (recombinant PRL-3; [1])	% Phosphatase Activity (compared to DMSO) PRL-2 (recombinant PRL-2)	% Phosphatase Activity (compared to DMSO) PRL-1 (recombinant PRL-1)	% Phosphatase Activity (compared to DMSO) PRL-3 (recombinant PRL-3)
COCCCOc1cc(C[C@@H](C[C@H](N)[C@@H](O)C[C@H](C(=O)NCC(C)(C)C(N)=O)C(C)C)C(C)C)ccc1OC [Aliskiren Hemifumarate]	122%	102%	102%			
Oc1ncnc2[nH]ncc12 [Allopurinol]	97%	104%	77%			
C=CCNC(N)=S [Allylthiourea]	121%	106%	86%			
CN(C)CCc1c[nH]c2ccc(CS(=O)(=O)N3CCCC3)cc12.O=C(O)CC(O)C(=O)O [Almotriptan Malate]	114%	97%	68%			
Cn1c(=O)cc(N2CCC[C@@H](N)C2)n(Cc2ccccc2C#N)c1=O [Alogliptin]	123%	112%	96%			
CCOC(=O)[C@H]1O[C@@H]1C(=O)N[C@@H](CC(C)C)C(=O)NCCC(C)C [Aloxistatin]	78%	87%	86%			
CCCCC[C@H](O)/C=C/[C@H]1[C@H](O)CC(=O)[C@@H]1CCCCCCC(=O)O [Alprostadil]	113%	117%	98%			
C=CC[C@]1(O)CC[C@H]2[C@@H]3CCC4=CC(=O)CCC4=C3C=C[C@@]21C [Altrenogest]	178%	192%	156%			
CN(C)c1nc(N(C)C)nc(N(C)C)n1 [Altretamine]	89%	89%	71%			
Cc1c(-c2ccnn2C)cc(C(=O)NCc2ccc(S(C)(=O)=O)cn2)c(=O)n1-c1cccc(C(F)(F)F)c1 [Alvelestat (AZD9668)]	114%	138%	121%			
CCN(CCCc1ccccc1)CCCc1ccccc1 [Alverine Citrate]	107%	97%	95%			
NC12CC3CC(CC(C3)C1)C2 [Amantadine HCl]	127%	117%	88%			
COC(c1ccccc1)(c1ccccc1)[C@H](Oc1nc(C)cc(C)n1)C(=O)O [Ambrisentan]	99%	94%	78%			
Cl.Nc1c(Br)cc(Br)cc1CN[C@H]1CC[C@H](O)CC1 [Ambroxol HCl]	117%	105%	98%			
CC(NC(C)(C)C)C(=O)c1cccc(Cl)c1.Cl (stereo not drawn) [Amfebutamone HCl]	110%	102%	77%			
Nc1c(CC(=O)[O-])cccc1C(=O)c1ccccc1.O.[Na+] [Amfenac Sodium Monohydrate]	108%	89%	67%			
NCCCNCCSP(=O)(O)O [Amifostine]	108%	110%	114%			

Structure (SMILES)	% Phosphatase Activity (compared to DMSO) PRL-2 (recombinant PRL-2; [1])	% Phosphatase Activity (compared to DMSO) PRL-1 (recombinant PRL-1; [1])	% Phosphatase Activity (compared to DMSO) PRL-3 (recombinant PRL-3; [1])	% Phosphatase Activity (compared to DMSO) PRL-2 (recombinant PRL-2)	% Phosphatase Activity (compared to DMSO) PRL-1 (recombinant PRL-1)	% Phosphatase Activity (compared to DMSO) PRL-3 (recombinant PRL-3)
NCC[C@H](O)C(=O)N[C@@H]1C[C@H](N)[C@@H](O[C@H]2O[C@H](CN)[C@@H](O)[C@H](O)[C@H]2O)[C@H](O)[C@H]1O[C@H]1O[C@H](CO)[C@@H](O)[C@H](N)[C@H]1O [Amikacin disulfate]	152%	96%	110%			
NCC[C@H](O)C(=O)N[C@@H]1C[C@H](N)[C@@H](O[C@H]2O[C@H](CN)[C@@H](O)[C@H](O)[C@H]2O)[C@H](O)[C@H]1O[C@H]1O[C@H](CO)[C@@H](O)[C@H](N)[C@H]1O [Amikacin hydrate]	95%	91%	107%			
N=C(N)NC(=O)c1nc(Cl)c(N)nc1N [Amiloride HCl]	300%	234%	230%			
N=C(N)NC(=O)c1nc(Cl)c(N)nc1N [Amiloride hydrochloride dihydrate]	219%	254%	220%			
CCC1(c2ccc(N)cc2)CCC(=O)NC1=O (stereo not drawn) [Aminoglutethimide]	107%	94%	77%			
Cl.N=C(N)NN [Aminoguanidine (hydrochloride)]	91%	100%	87%			
Cn1c(=O)c2[nH]cnc2n(C)c1=O [Aminophylline]	96%	97%	62%			
Nc1nccs1 [Aminothiazole]	103%	108%	79%			
CCCCc1oc2ccccc2c1C(=O)c1cc(I)c(OCCN(CC)CC)c(I)c1 [Amiodarone HCl]				117%	97%	102%
CCN1CCCC1CNC(=O)c1cc(S(=O)(=O)CC)c(N)cc1OC (stereo not drawn) [Amisulpride]	89%	94%	74%			
CN(C)CCC=C1c2ccccc2CCc2ccccc21 [Amitriptyline HCl]	101%	92%	89%			
CCOC(=O)C1=C(COCCN)NC(C)=C(C(=O)OC)C1c1ccccc1Cl.O=S(=O)(O)c1ccccc1 (stereo not drawn) [Amlodipine besylate (Norvasc)]	174%	152%	168%			
CCOC(=O)C1=C(COCCN)NC(C)=C(C(=O)OC)C1c1ccccc1Cl (stereo not drawn) [Amlodipine]	157%	145%	149%			
CCN(CC)Cc1cc(Nc2ccnc3cc(Cl)ccc23)ccc1O.Cl.Cl.O.O [Amodiaquin (dihydrochloride dihydrate)]	74%	84%	77%			
CN(C)CCN1C(=O)c2cccc3cc(N)cc(c23)C1=O [Amonafide]	98%	89%	72%			
CCC(C)(C)c1ccc(CC(C)CN2C[C@@H](C)O[C@@H](C)C2)cc1 (stereo partly drawn) [Amorolfine HCl]	94%	102%	78%			
Clc1ccc2c(c1)C(N1CCNCC1)=Nc1ccccc1O2 [Amoxapine]	118%	109%	88%			

From PMC8119466, “A screen of FDA-approved drugs identifies inhibitors of protein tyrosine phosphatase 4A3 (PTP4A3 or PRL-3)” (Scientific Reports, 2021)
